Structures are written as SMILES. Numbers after ± are expanded uncertainties.

This series in a line: activity coefficient (dimensionless); of the first substance listed, at infinite dilution; xn = mol fraction of the nth substance listed. As to conditions: Liquid, Chromatography, x1 = 0.

On to `CCC(=O)OC` [methyl propanoate] + CCCC[N+](C)(C)C.O=S(=O)([N-]S(=O)(=O)C(F)(F)F)C(F)(F)F, for which the activity coefficient (311.65 K) came to 0.94 ± 0.06, the activity coefficient (333.15 K) stood at 0.92 ± 0.06 and the activity coefficient (343.75 K) was determined as 0.91 ± 0.06.
`C=CCCCCC` [1-heptene] + CCCC[N+](C)(C)C.O=S(=O)([N-]S(=O)(=O)C(F)(F)F)C(F)(F)F: the activity coefficient (306.75 K) came out at 15.6 ± 1.1; the activity coefficient (311.95 K) came out at 14.9 ± 1; the activity coefficient (322.55 K) stood at 13.9 ± 0.95; the activity coefficient (333.25 K) was determined as 12.9 ± 0.88; the activity coefficient (343.65 K) was 12 ± 0.82; the activity coefficient (354.05 K) was found to be 11.3 ± 0.77.
Take `CCCCC=O` [pentanal] + CCCC[N+](C)(C)C.O=S(=O)([N-]S(=O)(=O)C(F)(F)F)C(F)(F)F: the activity coefficient (301.75 K) stood at 1.71 ± 0.11; the activity coefficient (312.25 K) was 1.65 ± 0.11; the activity coefficient (322.75 K) amounted to 1.62 ± 0.11; the activity coefficient (333.25 K) came out at 1.57 ± 0.1; the activity coefficient (343.55 K) was 1.5 ± 0.1; the activity coefficient (354.15 K) came out at 1.46 ± 0.1.
As to `C=CCCC` [1-pentene] + CCCC[N+](C)(C)C.O=S(=O)([N-]S(=O)(=O)C(F)(F)F)C(F)(F)F, the activity coefficient (301.85 K) stood at 6.06 ± 0.41 and the activity coefficient (312.35 K) was found to be 5.79 ± 0.39.
As to `CN(C)C=O` [dimethylformamide] + CCCC[N+](C)(C)C.O=S(=O)([N-]S(=O)(=O)C(F)(F)F)C(F)(F)F, the activity coefficient reads like this: (364.55 K) 0.29 ± 0.03; (375.15 K) 0.29 ± 0.03; (385.55 K) 0.3 ± 0.03; (396.15 K) 0.3 ± 0.03.
On to `c1ccccc1` [benzene] + CCCC[N+](C)(C)C.O=S(=O)([N-]S(=O)(=O)C(F)(F)F)C(F)(F)F, for which the activity coefficient reads like this: (322.75 K) 1.3 ± 0.08; (333.35 K) 1.26 ± 0.08; (343.55 K) 1.26 ± 0.08; (354.05 K) 1.22 ± 0.08; (364.45 K) 1.2 ± 0.08.
On to `C1COCCO1` [1,4-dioxane] + CCCC[N+](C)(C)C.O=S(=O)([N-]S(=O)(=O)C(F)(F)F)C(F)(F)F, for which the activity coefficient (343.75 K) amounted to 0.74 ± 0.05 and the activity coefficient (354.25 K) was found to be 0.73 ± 0.05.
In the case of `CCCCC(=O)OC` [methyl pentanoate] + CCCC[N+](C)(C)C.O=S(=O)([N-]S(=O)(=O)C(F)(F)F)C(F)(F)F, the activity coefficient was 1.66 ± 0.11 (322.75 K), 1.63 ± 0.11 (333.15 K), 1.44 ± 0.09 (364.55 K) and 1.33 ± 0.09 (374.95 K).
Consider `CCCCCC(=O)OC` [methyl hexanoate] + CCCC[N+](C)(C)C.O=S(=O)([N-]S(=O)(=O)C(F)(F)F)C(F)(F)F, for which the activity coefficient runs as follows: (343.65 K) 2.43 ± 0.17; (354.05 K) 2.33 ± 0.16; (364.55 K) 2.19 ± 0.15; (374.95 K) 2.08 ± 0.14.
On to `ClC(Cl)Cl` [trichloromethane] + CCCC[N+](C)(C)C.O=S(=O)([N-]S(=O)(=O)C(F)(F)F)C(F)(F)F, for which the activity coefficient runs as follows: (301.75 K) 1.03 ± 0.06; (312.15 K) 1.04 ± 0.07; (333.25 K) 1.04 ± 0.07.
As to `CCCCc1ccccc1` [butylbenzene] + CCCC[N+](C)(C)C.O=S(=O)([N-]S(=O)(=O)C(F)(F)F)C(F)(F)F, the activity coefficient runs as follows: (333.25 K) 5.77 ± 0.39; (343.65 K) 5.62 ± 0.38; (354.05 K) 5.43 ± 0.37; (364.45 K) 5.31 ± 0.36; (374.95 K) 5.16 ± 0.35.
On to `CCCCCCCC` [octane] + CCCC[N+](C)(C)C.O=S(=O)([N-]S(=O)(=O)C(F)(F)F)C(F)(F)F, for which the activity coefficient (301.62 K) turned out to be 45.4 ± 3.1, the activity coefficient (312.15 K) is 41 ± 2.8, the activity coefficient (322.75 K) came out at 37.2 ± 2.5 and the activity coefficient (333.25 K) came to 34.1 ± 2.3.
Turning to `C=CCCCCCCC` [1-nonene] + CCCC[N+](C)(C)C.O=S(=O)([N-]S(=O)(=O)C(F)(F)F)C(F)(F)F, the activity coefficient by setting is: (306.65 K) 34.1 ± 2.3; (311.98 K) 32.6 ± 2.2; (322.55 K) 29.9 ± 2; (333.25 K) 26.7 ± 1.8; (343.65 K) 24.5 ± 1.7; (354.05 K) 22.3 ± 1.5. In addition, the activity coefficient (364.55 K) came to 20.9 ± 1.4.
As for `CC(C)CO` [2-methyl-1-propanol] + CCCC[N+](C)(C)C.O=S(=O)([N-]S(=O)(=O)C(F)(F)F)C(F)(F)F, the activity coefficient runs as follows: (302.55 K) 3.98 ± 0.27; (312.15 K) 3.52 ± 0.24; (322.85 K) 3.13 ± 0.21; (333.35 K) 2.72 ± 0.19; (343.65 K) 2.46 ± 0.17; (354.05 K) 2.23 ± 0.15.
Regarding `CCCCCCCO` [heptan-1-ol] + CCCC[N+](C)(C)C.O=S(=O)([N-]S(=O)(=O)C(F)(F)F)C(F)(F)F, the activity coefficient reads like this: (354.05 K) 3.47 ± 0.24; (364.63 K) 3.11 ± 0.21; (375.05 K) 2.81 ± 0.19; (386.6 K) 2.58 ± 0.18.
In the case of `CCCC(=O)OC` [methyl butanoate] + CCCC[N+](C)(C)C.O=S(=O)([N-]S(=O)(=O)C(F)(F)F)C(F)(F)F, the activity coefficient (311.65 K) came out at 1.31 ± 0.09, the activity coefficient (333.15 K) came out at 1.26 ± 0.08 and the activity coefficient (364.45 K) amounted to 1.2 ± 0.08.
Consider `CCCCCCC` [heptane] + CCCC[N+](C)(C)C.O=S(=O)([N-]S(=O)(=O)C(F)(F)F)C(F)(F)F, for which the activity coefficient runs as follows: (301.62 K) 30.2 ± 2.1; (312.15 K) 27.7 ± 1.9; (322.75 K) 25.6 ± 1.8; (333.25 K) 23.4 ± 1.6.
For `CCc1ccccc1` [ethylbenzene] + CCCC[N+](C)(C)C.O=S(=O)([N-]S(=O)(=O)C(F)(F)F)C(F)(F)F, the activity coefficient reads like this: (322.85 K) 2.79 ± 0.19; (333.25 K) 2.76 ± 0.19; (343.75 K) 2.65 ± 0.18; (354.15 K) 2.6 ± 0.18.
For the compound `CCC(C)O` (stereo not drawn) [butan-2-ol] + CCCC[N+](C)(C)C.O=S(=O)([N-]S(=O)(=O)C(F)(F)F)C(F)(F)F, the activity coefficient is, setting by setting: (333.15 K) 2.06 ± 0.14; (343.65 K) 1.87 ± 0.13; (354.05 K) 1.7 ± 0.11; (364.45 K) 1.53 ± 0.1; (374.95 K) 1.38 ± 0.09.
Take `CCCCC` [pentane] + CCCC[N+](C)(C)C.O=S(=O)([N-]S(=O)(=O)C(F)(F)F)C(F)(F)F: the activity coefficient turned out to be 13.7 ± 0.93 (301.85 K) and 13.9 ± 0.95 (322.85 K).
`CCCCCC=O` [hexanal] + CCCC[N+](C)(C)C.O=S(=O)([N-]S(=O)(=O)C(F)(F)F)C(F)(F)F: the activity coefficient (322.75 K) worked out at 1.92 ± 0.13; the activity coefficient (333.25 K) worked out at 1.9 ± 0.13; the activity coefficient (343.55 K) worked out at 1.88 ± 0.13; the activity coefficient (354.15 K) was determined as 1.85 ± 0.12; the activity coefficient (364.65 K) amounted to 1.84 ± 0.12.
For the compound `CCCCO` [butan-1-ol] + CCCC[N+](C)(C)C.O=S(=O)([N-]S(=O)(=O)C(F)(F)F)C(F)(F)F, the activity coefficient by setting is: (302.55 K) 3.62 ± 0.25; (312.15 K) 3.22 ± 0.22; (322.85 K) 2.83 ± 0.19; (333.35 K) 2.49 ± 0.17; (343.65 K) 2.24 ± 0.15.
For `CCCCCCCCCCC` [undecane] + CCCC[N+](C)(C)C.O=S(=O)([N-]S(=O)(=O)C(F)(F)F)C(F)(F)F, the activity coefficient is 94.4 ± 6.5 (333.25 K); 83.9 ± 5.8 (343.65 K); 73.3 ± 5 (354.05 K); 66.3 ± 4.5 (364.55 K); 56 ± 3.8 (374.95 K).

(Values after the NIST ThermoML archive (doi:10.1021/je050440b).)
